# Entries after “also recorded” stand apart in the source; their conditions may differ.
# What was measured:
# [1] = test system: Salmonella Typhimurium; conditions: cited from earlier work
# [2] = test system: Francisella tularensis; conditions: cited from earlier work
# [3] = long term oral exposures up to 33 weeks; cited from earlier work
# [4] = preclinical studies; cited from earlier work
# [5] = test system: MRSA; assay: bacterial killing assay of CF clinical MRSA isolate in media (optical absorbance density, 24 hours); type: cell-based
# [6] = test system: human CF and non-CF MDMs; assay: macrophage viability assay at 24 h
# [7] = test system: B. cenocepacia; assay: direct bacterial killing assay in media alone (optical absorbance density over 24 hours)
# [8] = test system: P. aeruginosa; assay: direct bacterial killing assay in media alone of CF clinical P. aeruginosa isolate (24 hours); conditions: media devoid of human macrophages or neutrophils, n=3
# [9] = test system: P. aeruginosa; conditions: AR-13 alone
# [10] = test system: B. cenocepacia strain k56-2; conditions: 5 μM AR-13 alone
smiles,measurement,setting,value
NCC(=O)Nc1ccc(-n2nc(C(F)(F)F)cc2-c2ccc3c(ccc4ccccc43)c2)cc1 [AR-12],antibacterial activity against intracellular Salmonella Typhimurium in macrophages,[1],antibacterial activity
same,antibacterial activity against intracellular Francisella tularensis in macrophages,[2],antibacterial activity
same,safety profile in phase I study,[3],acceptable safety profile
same,accumulation in tissues relative to blood level concentrations,[4],exceeding the blood level concentrations by several fold
same,blood brain barrier penetration,[4],rapid blood brain barrier penetration
"NS(=O)(=O)Nc1ccc(-n2nc(C(F)(F)F)cc2-c2ccc3c(ccc4ccccc43)c2)cc1 [AR-13, N-{4-[5-(Phenanthren-2-yl)-3-(trifluoromethyl)-1H-pyrazol-1-yl]phenyl}sulfuric diamide]",killing of MRSA in media,"[5]; 24 hours, media",bacterial optical density increases as the dose of AR-13 decreases
same,reduction of optical absorbance density of MRSA compared to no treatment,"[5]; CF clinical MRSA isolate, 24 hour period, n=3",about 1.3 fold
same,AR-13 concentration of greatest efficacy against MRSA (dose titration),"[5]; dose titration 5, 2.5, 1.25 μM, 24 hours, n=3",5 µM
same,AR-13 concentrations tolerated by CF and non-CF macrophages and neutrophils,[6]; CF and non-CF macrophages and neutrophils,up to 10 μM
same,macrophage viability,"[6]; human CF and non-CF MDMs, uninfected or infected with B. cenocepacia, 24 h",no significant differences in cell viability; also recorded: does not impact macrophage viability
same,AR-13 concentrations resulting in increased toxicity,[6]; uninfected MDMs,above 10 μM
same,reduction of optical absorbance density of B. cenocepacia compared to no treatment,"[7]; AR-13 alone vs B. cenocepacia alone, media, 24 hour period, n=3",about 1.3 fold
same,direct killing / bacterial growth of B. cenocepacia in media alone,"[7]; media alone, 24 hours, AR-13 5 μM",significant reduction in bacterial growth; also recorded: direct killing effect
same,direct killing of P. aeruginosa in media,[8],did not demonstrate direct killing; also recorded: did not enhance bacterial killing in media; also recorded: no direct effect
same,reduction in P. aeruginosa burden in CF neutrophils,[9]; CF neutrophils,70%
same,reduction in P. aeruginosa burden in non-CF neutrophils,[9]; non-CF neutrophils,66%
same,reduction in B. cenocepacia burden in infected CF and non-CF macrophages,[10],23%

# From patent publication US10028933B2, “Compositions and methods for inhibiting the growth of multi-drug resistant microbes” (priority 2015, dated 2018)
